In patent US11807625B2, “Capsid inhibitors for the prevention of HIV” (Gilead Sciences, Inc., priority 2019, dated 2023):
Like-named read-outs stand apart in the source and are kept apart here.

Experiment: PK of compound of Formula (Ia) after single intramuscular dose of solution formulations in Wistar Han rats
Assay type: in vivo
Conditions: for Plasma concentration: 0 h; for Plasma concentration / concentration at 48 h / concentration at 1 h / concentration at 24 h / concentration at 72 h / concentration at 96 h / concentration at 168 h / concentration at 3 h / concentration at 8 h: IM 100 mg/kg; for concentration at 48 h / concentration at 1 h / concentration at 24 h / concentration at 72 h / concentration at 96 h / concentration at 168 h / AUC(0-t) / concentration at 3 h / concentration at 8 h: Wistar Han, rat, plasma, 100 mg/kg; for concentration at 48 h / concentration at 1 h / concentration at 24 h / concentration at 72 h / concentration at 96 h / concentration at 168 h / concentration at 3 h / concentration at 8 h: intramuscular; for AUC(0-t): im, single IM 100 mg/kg, male Wistar Han rats, mean ± SD
Experimental: Formulations containing the compound of Formula (Ia), or a pharmaceutically acceptable salt thereof, were prepared as solutions and optionally administered subcutaneously or intramuscularly to rats, rabbits, and/or dogs.
A solution of about 400 mg/ml of the compound of Formula (Ia) having 21.13 w/w % water, 45.25 w/w % PEG 300, and 33.61 w/w % of a sodium salt of a compound of Formula (Ia) was prepared. The solution was administered intramuscularly to Wistar Han rats at a dose of about 100 mg/kg and beagle dogs at a dose of about 30 mg/kg.
A solution of about 400 mg/ml of the compound of Formula (Ia) having 19.18 w/w % water, 41.09 w/w % PEG 300, 33.61 w/w % of a sodium salt of a compound of Formula (Ia), and 6.12 w/w % poloxamer 188 was prepared. The solution was administered intramuscularly to Wistar Han rats at a dose of about 100 mg/kg and beagle dogs at a dose of about 30 mg/kg.
A solution of about 500 mg/ml of the compound of Formula (Ia) having 16.93 w/w % water, 36.22 w/w % PEG 300, 41.85 w/w % of a sodium salt of a compound of Formula (Ia), and 5.00% ethanol was prepared. The solution was administered intramuscularly to Wistar Han rats at a dose of about 100 mg/kg and beagle dogs at a dose of about 30 mg/kg.
A solution of about 500 mg/ml of the compound of Formula (Ia) having 14.50 w/w % water, 31.04 w/w % PEG 300, 41.85 w/w % of a sodium salt of a compound of Formula (Ia), 5.00% ethanol, and 7.61 w/w % poloxamer 188 was prepared. The solution was administered intramuscularly to Wistar Han rats at a dose of about 100 mg/kg and beagle dogs at a dose of about 30 mg/kg.

[1] = Solution H (~400 mg/mL), Wistar Han rats, mean, n = 4, read-out: Plasma concentration, Mean
[2] = Solution K (~500 mg/mL, ethanol), Wistar Han rats, individual animals #1-#4, read-out: Plasma concentration
[3] = Solution K (~500 mg/mL, ethanol), Wistar Han rats, mean, n = 4, read-out: Plasma concentration, Mean
[4] = male, individual rats, solution M, 500 mg/mL, read-out: Plasma concentration
[5] = male, mean, n = 4 rats, solution M, 500 mg/mL, read-out: Plasma concentration
[6] = male, Solution H (~400 mg/mL), Wistar Han rats, mean, n = 4, read-out: Plasma concentration, Mean
[7] = male, Solution J (~400 mg/mL, poloxamer 188), Wistar Han rats, individual animals #1-#4, read-out: Plasma concentration
[8] = male, Solution J (~400 mg/mL, poloxamer 188), Wistar Han rats, mean, n = 4, read-out: Plasma concentration, Mean
[9] = male, Solution K (~500 mg/mL, ethanol), Wistar Han rats, individual animals #1-#4, read-out: Plasma concentration
[10] = male, Solution K (~500 mg/mL, ethanol), Wistar Han rats, mean, n = 4, read-out: Plasma concentration, Mean

## CC(C)(C#Cc1ccc(-c2ccc(Cl)c3c(NS(C)(=O)=O)nn(CC(F)(F)F)c23)c([C@H](Cc2cc(F)cc(F)c2)NC(=O)Cn2nc(C(F)(F)F)c3c2C(F)(F)[C@@H]2C[C@H]32)n1)S(C)(=O)=O [compound of Formula (Ia)]
Individual rats, solution M, 500 mg/mL
  Plasma concentration: BLQ
Solution H (~400 mg/mL), Wistar Han rats, individual animals #1-#4
  Plasma concentration: BLQ
Solution J (~400 mg/mL, poloxamer 188), Wistar Han rats, individual animals #1-#4
  Plasma concentration: BLQ
Solution K (~500 mg/mL, ethanol), Wistar Han rats, individual animals #1-#4
  Plasma concentration: BLQ
Solution H (~400 mg/mL), Wistar Han rats, individual animals #1-#4, read-out: Plasma concentration
  concentration at 48 h: 354 nM
[1]
  concentration at 1 h: 150 nM
  concentration at 24 h: 439 nM
  concentration at 48 h: 471 nM
  concentration at 72 h: 397 nM
  concentration at 96 h: 477 nM
  concentration at 168 h: 588 nM
[2]
  concentration at 72 h: 516 nM
  concentration at 96 h: 537 nM
  concentration at 168 h: 640 nM
[3]
  concentration at 1 h: 146 nM
  concentration at 72 h: 433 nM
  concentration at 96 h: 401 nM
  concentration at 168 h: 507 nM
male, Solution H (~400 mg/mL; Na salt, water, PEG 300), n = 4, read-out: AUC0-24h
  AUC(0-t): 7.59 ± 2.93 µM·h
male, Solution H (~400 mg/mL; Na salt, water, PEG 300), n = 4, read-out: AUC0-168h
  AUC(0-t): 77.7 ± 26.1 µM·h
male, Solution J (~400 mg/mL; Na salt, water, PEG 300, poloxamer 188), n = 4, read-out: AUC0-24h
  AUC(0-t): 12.1 ± 1.9 µM·h
male, Solution J (~400 mg/mL; Na salt, water, PEG 300, poloxamer 188), n = 4, read-out: AUC0-168h
  AUC(0-t): 82.5 ± 8.7 µM·h
male, Solution K (~500 mg/mL; Na salt, water, PEG 300, ethanol), n = 4, read-out: AUC0-24h
  AUC(0-t): 6.13 ± 1.7 µM·h
male, Solution K (~500 mg/mL; Na salt, water, PEG 300, ethanol), n = 4, read-out: AUC0-168h
  AUC(0-t): 67.4 ± 15.7 µM·h
male, Solution M (~500 mg/mL; Na salt, water, PEG 300, ethanol, poloxamer 188), n = 4, read-out: AUC0-24h
  AUC(0-t): 13.4 ± 2.4 µM·h
male, Solution M (~500 mg/mL; Na salt, water, PEG 300, ethanol, poloxamer 188), n = 4, read-out: AUC0-168h
  AUC(0-t): 92.9 ± 9.6 µM·h
[4]
  concentration at 1 h: 177 nM
  concentration at 3 h: 304 nM
  concentration at 8 h: 443 nM
  concentration at 24 h: 737 nM
  concentration at 48 h: 623 nM
  concentration at 96 h: 593 nM
  concentration at 168 h: 504 nM
[5]
  concentration at 1 h: 184 nM
  concentration at 3 h: 405 nM
  concentration at 8 h: 544 nM
  concentration at 24 h: 750 nM
  concentration at 48 h: 622 nM
  concentration at 72 h: 426 nM
  concentration at 96 h: 526 nM
  concentration at 168 h: 560 nM
male, Solution H (~400 mg/mL), Wistar Han rats, individual animals #1-#4, read-out: Plasma concentration
  concentration at 3 h: 179 nM
[6]
  concentration at 3 h: 245 nM
  concentration at 8 h: 285 nM
[7]
  concentration at 3 h: 463 nM
  concentration at 8 h: 510 nM
  concentration at 24 h: 761 nM
  concentration at 48 h: 716 nM
  concentration at 72 h: 526 nM
  concentration at 96 h: 506 nM
  concentration at 168 h: 481 nM
[8]
  concentration at 1 h: 249 nM
  concentration at 3 h: 445 nM
  concentration at 8 h: 507 nM
  concentration at 24 h: 605 nM
  concentration at 48 h: 558 nM
  concentration at 72 h: 452 nM
  concentration at 96 h: 461 nM
  concentration at 168 h: 467 nM
[9]
  concentration at 24 h: 438 nM
  concentration at 48 h: 439 nM
[10]
  concentration at 3 h: 209 nM
  concentration at 8 h: 218 nM
  concentration at 24 h: 361 nM
  concentration at 48 h: 376 nM
